US20230393140A1, “BINDING ASSAYS INVOLVING A PLURALITY OF SYNTHETIC COMPOUNDS, TARGETS, AND COUNTER TARGETS” (SRI International, priority 2020, published 2023)
Read-outs that look alike come from different tables or passages of the source. Marks after values point to notes of the source that are not given here. Numbered stars: 1 amine (or outer) side, 2 acyl side, 3 side chain; on linkers, the order of the positions; unused ones are H or OH. Square brackets hold non-standard residues; d marks the D form. Peptide text beside a SMILES is read from it. * marks the point of attachment. 5FAM = O=C1OC2(c3ccc(O)cc3Oc3cc(O)ccc32)c2ccc(C(=O)*)cc21; NHCH2C6H4(4-CH2CONH2) = NC(=O)Cc1ccc(CN*)cc1; X1 = O=C(Cc1ccc(CN[*:1])cc1)[*:2]

How the values were obtained:
K-Ras = biological target: T1, K-Ras (Homo sapiens, UniProt P01116, G12V); assay: MST binding affinity of resynthesized NNP hits to K-Ras
T1 construct: purchased Cytoskeleton Inc. CS-RS04
Outline: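 K-Ras G12V was GTP-loaded (EDTA exchange, 750 μM GTP, 2 h at 30° C, then MgCl2) and labeled with maleimide-647 dye. MST was run at room temperature in 20 mM HEPES pH 7.4, 150 mM NaCl, 10 mM MgCl2, 0.05% Tween-20, 1 mM DTT. Incubations lasted 15, 30 and 45 min; triplicate data fitted for affinity.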

K-Ras-Raf interaction = biological target: T2, K-Ras-Raf interaction (Homo sapiens, UniProt P01116, G12V); assay: K-Ras/Raf inhibition assay (MST competition binding); conditions: NNP at 1 μM pre-incubated with K-Ras 15 minutes at room temperature, then Raf titration
T2 construct: purchased Cytoskeleton Inc. (K-Ras); Jena Bioscience (Raf-RBD) CS-RS04; PR-305
Protocol: This was tested on an MST competition binding assay (see FIG. 11A).
Loading was performed according to the following protocol: The 200 μM stock solution of the target protein was diluted to 10 μM in 20 mM HEPES pH 8.0, 150 mM NaCl, 10 mM MgCl2, 1 mM TCEP, 0.05% Tween-20 (total volume 110 μL). 10 μL were set aside for later labeling quality control. EDTA pH 8.0 (stock concentration 10 mM) was added to the protein solution to a final concentration of 80 μM. GTP (stock concentration 50 mM) was added to the protein solution to a final concentration of 750 μM. The solution was incubated at 30° C. for 2 hours (PCR tube) and then placed on ice for 2 minutes. MgCl2 was added to the protein solution to a final concentration of 100 mM. The resulting protein solution was buffer exchanged into the buffer required in the labeling kit for labeling. […] All the other target molecules (TNFα, IL-6, IL-6R and ASGPR) were used as received without any additional treatment.
Loading of K-Ras with the GTP was performed according to the protocol detailed above (Activation of K-Ras by GTP loading). After the GTP loading the resulting protein solution was buffer exchanged into 100 mM HEPES pH 6.5, 5 mM MgCl2, 50 mM NaCl, 1 mM TCEP.

cRaf/K-Ras (G12V) PPI = biological target: T3, cRaf/K-Ras (G12V) PPI (Homo sapiens, UniProt P01116, G12V); assay: K-Ras-cRaf HTRF-based PPI profiling; format: biochemical; conditions: for blank corrected HTRF: raw data, compounds without fluorescein;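 as to blank corrected HTRF: background is the signal of wells with all components except cRaf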
T3 construct: b-Kras G12V (GppNHp) (aa 2-169); biotin (b-
Outline: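 K-Ras(G12V) pre-incubated 30 min at room temperature with compound in 20 mM HEPES pH 7.4, 150 mM NaCl, 5 mM MgCl2, 1 mM DTT, 0.005% NP40, 1% DMSO, then cRaf added. HTRF read via anti-GST-Tb cryptate/streptavidin-XL665. % binding is relative to DMSO controls; curves fitted only if activity at top concentration fell below 65%.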

biotinylated GST = assay: Interference check with biotinylated GST and detection mix
Excerpt: Table 20 below provides an interference check on the synthetic compounds using biotinylated GST, which was used with the detection mix to check for compound effect on fluorescence.

Compound: CC(C)C[C@@H](NC(=O)[C@@H](Cc1ccc(O)cc1)NC(=O)[C@H]1CCCN1C(=O)[C@@H](CO)NC(=O)Cc1ccc(CNC(=O)CNC(=O)[C@@H](Cc2c[nH]c3ccccc23)NC(=O)[C@@H](CCCNC(=N)N)NC(=O)CNC(=O)[C@H]2CCCN2C(=O)Cc2ccc(CNC(=O)[C@H](C)NC(=O)[C@@H](CCCNC(=N)N)NC(=O)[C@H]3CCCN3C(=O)[C@H](NC(=O)[C@@H](Cc3ccc(O)cc3)NC(=O)Cc3ccc(CNC(=O)[C@H](Cc4ccccc4)NC(=O)[C@@H](CO)NC(=O)[C@@H](CCCNC(=N)N)NC(=O)[C@H]4CCCN4C(=O)CNC(=O)Cc4ccc(CNC(=O)[C@H](C)NC(=O)[C@@H](CCCNC(=N)N)NC(=O)[C@H]5CCCN5C(=O)[C@H](NC(=O)CNC(=O)Cc5ccc(CNC(=O)[C@@H](NC(=O)[C@@H](Cc6ccc(O)cc6)NC(=O)[C@@H](Cc6c[nH]cn6)NC(=O)[C@H]6CCCN6C(=O)[C@@H](Cc6c[nH]c7ccccc67)NC(=O)c6ccc7c(c6)C(=O)OC76c7ccc(O)cc7Oc7cc(O)ccc76)C(C)C)cc5)C(C)C)cc4)cc3)[C@H](C)O)cc2)cc1)C(=O)N[C@@H](C)C(=O)NCc1ccc(CC(N)=O)cc1 [KRAS-1-8] (5FAM-[dW][dP][dH][dY]V[X1]G[dV][dP][dR]A[X1]G[dP][dR][dS]F[X1][dY][dT][dP][dR]A[X1][dP]G[dR][dW]G[X1][dS][dP][dY][dL]A-{NHCH2C6H4(4-CH2CONH2)})
- Kd (K-Ras; K-Ras, compound with fluorescein on N-term, read-out: KD[nM] in MST (with fluorescein on N-term)): 44 nM
- Kd (K-Ras; read-out: KD (nM) [95% conf. int], MST, NNP1 library hit, target K-Ras, one-site binding model): 44 nM
- Kd (K-Ras; read-out: KD of K-Ras hits by MST): 44 nM
- Inhibition of K-Ras-Raf PPI (K-Ras-Raf interaction): complete inhibition
- HillSlope (cRaf/K-Ras (G12V) PPI; curve fit of % binding, K-Ras G12V 30 nM, GST-cRaf 10 nM): −0.6222
- blank corrected HTRF (cRaf/K-Ras (G12V) PPI; conc. 1.00E−05): 7296
- blank corrected HTRF (cRaf/K-Ras (G12V) PPI; conc. 1.11E−06): 10835
- blank corrected HTRF (cRaf/K-Ras (G12V) PPI; conc. 1.37E−08): 15117
- blank corrected HTRF (cRaf/K-Ras (G12V) PPI; conc. 3.33E−06): 9028
- blank corrected HTRF (cRaf/K-Ras (G12V) PPI; conc. 3.70E−07): 12171
- blank corrected HTRF (cRaf/K-Ras (G12V) PPI; conc. 4.12E−08): 15230
- blank corrected HTRF (cRaf/K-Ras (G12V) PPI; conc. 4.57E−09): 14396
- blank corrected HTRF (cRaf/K-Ras (G12V) PPI; conc. 5.08E−10): 13397
- % signal compared to DMSO (biotinylated GST; assay conc. 0.000508053 μM): 99.94%
- % signal compared to DMSO (biotinylated GST; assay conc. 0.001524158 μM): 102.4%
- % signal compared to DMSO (biotinylated GST; assay conc. 0.004572474 μM): 103%
- % signal compared to DMSO (biotinylated GST; assay conc. 0.013717421 μM): 98.33%
- % signal compared to DMSO (biotinylated GST; assay conc. 0.041152263 μM): 87.69%
- % signal compared to DMSO (biotinylated GST; assay conc. 0.12345679 μM): 97.53%
- % signal compared to DMSO (biotinylated GST; assay conc. 0.37037037 μM): 93.95%
- % signal compared to DMSO (biotinylated GST; assay conc. 1.111111111 μM): 81.88%
- % signal compared to DMSO (biotinylated GST; assay conc. 3.333333333 μM): 68.53%
- % signal compared to DMSO (biotinylated GST; assay conc. 10 μM): 56.45* %
